# Test results from patent US5922689A, “Cisplatin analogs for cancer treatment” (Unitech Pharmaceuticals, Inc., priority 1997, dated 1999).
# What was measured:
# [1] = test system: MCF-7 breast cancer cells; experiment: Side-by-side growth assay versus cisplatin, MCF-7, Example 6; type: cell-based, human; details: for MCF-7 cell count: untreated 2.96 × 10^6
# Method: (§1) Growth Assay: plate individual cells (human breast cancer cells MCF-7, and MDA-MB-231) at 10^4 cells/mL, 1-mL/well in MEM-10 (MEM+10% FBS, where FBS is fetal Bovine Serum) with 1/100 Penicillin/Strep. Add 1/100 volume of the above Test Solution (10 μL/mL) to triplicate wells. MCF-7 also requires 10 μg/mL insulin; MDA-MB-231 requires no insulin. Incubate cell cultures at 37° C. for 6 days and count the number of cells.
# (§2) side-by-side comparison of cis-[Pt(NH3)2 PtCl(Guanosine)]Cl and cisplatin (performed by Biotherapies Incorporated of Ann Arbor, Mich.)
# (§3) Test Solutions: Test solutions were prepared in the same manner as in Example 5, except, additional test solution was prepared employing cisplatin.
# (§4) Growth Assay: The same method in Example 5 was used. However, the cells studied were normal human mammary cells and breast cancer cells, MCF-7.
# [2] = test system: normal human mammary cells; experiment: Side-by-side growth assay versus cisplatin, normal human mammary cells, Example 6; type: cell-based; details: for cell count, normal human mammary cells: untreated 1.00 × 10^5; for % inhibition: normal human mammary cells
# Method: as §1, §2, §3, §4
# [3] = test system: human breast cancer cells MCF-7; experiment: In-vitro growth assay (cell count after 6 days), MCF-7, Example 5; type: cell-based; details: 37° C.; for MCF-7 cell count / % inhibition: 6 days; for MCF-7 cell count: untreated 6.70 × 10^5
# Method: (§5) In-vitro inhibition of cancer cells by cis-[(NH3)2 PtCl(Guanosine)]Cl (performed by Biotherapies Incorporated, Ann Arbor, Mich.)
# as §1
# [4] = test system: human breast cancer cells MDA-MB-231; experiment: In-vitro growth assay (cell count after 6 days), MDA-MB-231, Example 5; type: cell-based; details: 37° C.; for MDA cell count / % inhibition: 6 days; for MDA cell count: untreated 4.00 × 10^5
# Method: as §5, §1
# [5] = 0.012 mg/mL (4.00 × 10^-5 mmole/mL)
# [6] = cisplatin 0.025 mg/mL (8.33 × 10^-5 mmole/mL)
# [7] = 0.00025 mg/mL (4.29 × 10^-7 mmole/mL)
# [8] = 0.0025 mg/mL (4.29 × 10^-6 mmole/mL)
# [9] = 0.025 mg/mL (4.29 × 10^-5 mmole/mL)
# [10] = 0.05 mg/mL (8.57 × 10^-5 mmole/mL)
# [11] = #95001 0.025 mg/mL (4.29 × 10^-5 mmole/mL)
molecule,measurement,setting,value
"N.N.[Cl][Pt][Cl] [cisplatin, cis-diamminedichloroplatinum]",MCF-7 cell count,[1]; [5],5.00 × 10^3
same,% inhibition,"[1]; MCF-7, 0.012 mg/mL (4.00 × 10^-5 mmole/mL)",99.8%
same,% inhibition,"[1]; MCF-7, cisplatin 0.025 mg/mL (8.33 × 10^-5 mmole/mL)",99.9%
same,MCF-7 cell count,[1]; [6],5.00 × 10^3
same,"cell count, normal human mammary cells",[2]; [5],1.00 × 10^4
same,"cell count, normal human mammary cells",[2]; [6],3.30 × 10^3
same,% inhibition,[2]; [5],90.0%
same,% inhibition,[2]; [6],99.0%
cis-diamminechloroguanosineplatinum chloride [cis-[Pt(NH3)2 Cl(Guanosine)]Cl],MCF-7 cell count,[3]; [7],6.10 × 10^5
same,MCF-7 cell count,[3]; [8],5.00 × 10^4
same,MCF-7 cell count,[3]; [9],1.00 × 10^4
same,% inhibition,"[3]; MCF-7, 0.00025 mg/mL (4.29 × 10^-7 mmole/mL)",9.0%
same,% inhibition,"[3]; MCF-7, 0.0025 mg/mL (4.29 × 10^-6 mmole/mL)",92.5%
same,% inhibition,"[3]; MCF-7, 0.025 mg/mL (4.29 × 10^-5 mmole/mL)",98.5%
same,inhibition of cell growth (in words),"[3]; MCF-7, 6 days",able to inhibit the cell growth
same,MCF-7 cell count,[1]; [10],6.70 × 10^3
same,MCF-7 cell count,[1]; [11],3.30 × 10^3
same,% inhibition,"[1]; MCF-7, 0.05 mg/mL (8.57 × 10^-5 mmole/mL)",99.8%
same,% inhibition,"[1]; MCF-7, #95001 0.025 mg/mL (4.29 × 10^-5 mmole/mL)",97.6%
same,effectiveness in killing MCF-7 cells versus cisplatin (in words),[1]; ca. 8×10-5 mmole/mL,as effective as cisplatin in killing MCF-7 cells
same,"cell count, normal human mammary cells",[2]; [10],4.50 × 10^4
same,"cell count, normal human mammary cells",[2]; [11],9.30 × 10^4
same,toxicity to normal human mammary cells versus cisplatin (in words),[2]; ca. 8×10-5 mmole/mL,lower than cisplatin
same,% inhibition,[2]; [10],55.0%
same,% inhibition,[2]; [11],7.0%
same,MDA cell count,[4]; [7],3.55 × 10^5
same,MDA cell count,[4]; [8],5.00 × 10^4
same,MDA cell count,[4]; [9],1.00 × 10^4
same,% inhibition,"[4]; MDA-MB-231, 0.00025 mg/mL (4.29 × 10^-7 mmole/mL)",11.3%
same,% inhibition,"[4]; MDA-MB-231, 0.0025 mg/mL (4.29 × 10^-6 mmole/mL)",87.5%
same,% inhibition,"[4]; MDA-MB-231, 0.025 mg/mL (4.29 × 10^-5 mmole/mL)",97.5%
same,inhibition of cell growth (in words),"[4]; MDA-MB-231, 6 days",able to inhibit the cell growth
